Test systems include SN12K1 renal; HOP-18 NSCLC; P388/ADR leukemia; XF 498 CNS; P388 leukemia; DLD-1 colon; KM20L2 colon; LXFL 529 NSCLC; RXF-631 renal.
What all share (assay): NCI tumour cell line growth inhibition, 48 h

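Test compounds were applied to cells in 96-well plates for 48 hours at 5 doses. The concentration for full growth arrest is given as TGI.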 Bounds are passed on as bounds.

Our source for the TGI values is PubChem BioAssay (NCI).

As for `CCOC(=O)CN(CC)C(=O)NC12CC3CC(CC(C3)C1)C2`, the TGI is 569 µM in the test on SN12K1 renal; 609 µM in the test on HOP-18 NSCLC; 640 µM in the test with P388/ADR leukemia; 293 µM with XF 498 CNS; 508 µM with P388 leukemia; over 119 µM in the test on DLD-1 colon. Further, the TGI with KM20L2 colon amounted to 471 µM.
For the compound `O=C1C=C2SC3C[C@@]24CC1(O)[N+]1=c2c4c(c(O)c4c2=C(C=N4)CC1)N3`, the TGI in the test with SN12K1 renal came out at 2.73 µM; in the test on HOP-18 NSCLC, 3.9 µM; in the test with XF 498 CNS, 3.28 µM; in the test on P388 leukemia it was 4.78 µM; in the test with DLD-1 colon it was 2.65 µM; in the test on KM20L2 colon, 1.08 µM.
As to `Cc1c(CCCl)c(Cl)n2c(nc3ccccc32)c1C#N`, the TGI with HOP-18 NSCLC is 3.95 µM; in the test with LXFL 529 NSCLC, 1.63 µM; in the test on RXF-631 renal it was 2.18 µM; in the test on DLD-1 colon, 2.44 µM; in the test on KM20L2 colon, 2.11 µM.
In the case of `CCCOC(=O)CCC(NC(=O)c1ccc(Nc2nc3ccccc3nc2-c2cccs2)cc1)C(=O)OCCC` (stereo not given), the TGI with HOP-18 NSCLC, in the test on LXFL 529 NSCLC, in the test on XF 498 CNS, in the test on RXF-631 renal and with KM20L2 colon was over 100 µM throughout.
As for `O=C1N[C@@H]([C@H]2CC[C@H](Cl)CN2)C(=O)N[C@H]1[C@H]1CC[C@H](Cl)CN1`, the TGI in the test on SN12K1 renal is 13.5 µM; with HOP-18 NSCLC, 139 µM; with P388/ADR leukemia, 23.1 µM; in the test on XF 498 CNS, 0.819 µM; in the test on P388 leukemia, 20.3 µM; in the test on DLD-1 colon, 286 µM. In the test on KM20L2 colon, this compound yielded a TGI of 63.9 µM.
Regarding `CC(=O)OC1CCC2(C)C(CCC3C2CCC2(C)C(c4ccc(=O)oc4)C(OC(C)=O)CC32O)C1` (stereo not given), the TGI in the test with SN12K1 renal came out at 0.0296 µM; with HOP-18 NSCLC it was 0.068 µM; in the test with P388/ADR leukemia, 125 µM; with XF 498 CNS it was 0.0771 µM; in the test with P388 leukemia, 125 µM; in the test on DLD-1 colon, 0.0293 µM. The compound also came in with a TGI in the test with KM20L2 colon of 0.092 µM.
As for `O=S(c1ccc(O)cc1)c1ccc(O)cc1`, the TGI with XF 498 CNS, with RXF-631 renal, in the test with DLD-1 colon and in the test on KM20L2 colon was over 100 µM throughout.
`CC/C(CC(=O)CCC(=O)Nc1ccc(C)c(C)c1)=N\NC(=O)c1cc2ccccc2cc1O`: the TGI was 88.1 µM in the test with HOP-18 NSCLC, over 100 µM in the test with LXFL 529 NSCLC, over 100 µM in the test on RXF-631 renal and over 100 µM with DLD-1 colon.
